In patent US20250235429A1, “TREATMENT OF DISEASES VIA ADMINISTRATION OF BUNTANETAP AND AN ANTIDIABETIC AGENT” (ANNOVIS BIO, INC., priority 2024, published 2025):
Marks after values point to notes of the source that are not given here.

What was measured:
[1] = system: APP in SH-SY-5Y human neuroblastoma cells; assay: APP in vitro (Western blot) in neuroblastoma cells; format: cell-based; conditions: SH-SY-5Y cells; 0, 0.1, 1, 5 and 10 μM
[2] = system: patients with mild to moderate AD; assay: Phase II/III dose-ranging study of buntanetap in mild to moderate AD (ADAS-Cog 11); format: in vivo, human
Procedure: A randomized, double-blind, placebo-controlled Phase II/III study trial investigating the efficacy, safety, and tolerability of buntanetap in patients with mild to moderate AD was conducted. This was a dose-ranging study where patients received either one of three doses of buntanetap (7.5 mg, 15 mg, or 30 mg) or placebo on top of their standard of care for 12 weeks. In this study, over 700 patients were screened, a total of 353 patients were enrolled, and 325 patients completed the study across 54 sites in the US. The study included mild to moderate AD patients whose Mini Mental State Examination (MMSE) scores at baseline ranged from 14 to 24. (www.clinicaltrials.gov (NCT05686044)).
Beyond safety, the trial assessed the changes in two co-primary endpoints: Alzheimer's Disease Assessment Scale-Cognitive Subscale 11 (ADAS-Cog 11) and Alzheimer's Disease Cooperative Study Clinician's Global Impression of Change (ADCS-CGIC), which assess cognition and activities of daily living. The study monitored for safety and collected plasma to measure several biomarkers to assess the disease state, potential disease progression, and treatment effects.

[3] = system: hippocampal slices APP/PS1 transgenic mice; assay: Electrophysiological study: long-term potentiation (LTP) in hippocampal slices; format: in vivo
Procedure: (§1) Animals: Heterozygous double transgenic mice expressing both human APP (K670N:M671L) and human PS1 (M146L) (line 6.2) and their wild-type non-transgenic littermates, both males and females, were used for these experiments. They were obtained by a breeding colony maintained at the animal facility of Columbia University. They were genotyped through PCR on tail samples. Animals were injected i.p. from the age of […] for 1 month prior to starting behavioral assessment which lasted for 2 weeks during which treatment continued. Behavioral assessment examined spatial and associative memory. Finally, mice were sacrificed for electrophysiological assessment of synaptic function.
Mice were coded to blind investigators with respect to genotype and treatment. Results were expressed with Standard Error of the Mean (SEM). Level of significance was set for p<0.05. Results were analyzed by ANOVA analysis with post-hoc correction with the combination or genotype as main effect. Experiments were designed in a balanced fashion, and mice were trained and tested at each of the different conditions in 3 or 4 separate experiments.
Mice were i.p. injected with the drug from the age of 8 weeks prior to plaque appearance until euthanasia for collecting slices at the age of 14-16 weeks. The treatment with Buntanetap was daily, whereas the treatment with dulaglutide was twice a week.
Electrophysiological analysis was performed on 400 μm hippocampal slices, cut with a tissue chopper and maintained in an interface chamber at 29° C. for 90 min prior to recording. Briefly, CA1 fEPSPs were recorded by placing both the stimulating and the recording electrodes in CA1 stratum radiatum. Basal synaptic transmission was assayed, either by plotting the stimulus voltages against slopes of fEPSP, or by plotting the peak amplitude of the fiber volley against the slope of the fEPSP. For LTP experiments, a 15 min baseline was recorded every min at an intensity that evokes a response ˜35% of the maximum evoked response. LTP was induced using θ-burst stimulation (4 pulses at 100 Hz, with the bursts repeated at 5 Hz and each tetanus including 3 ten-burst trains separated by 15 see). Data was subjected to statistical analyses to determine the effects of combination on inhibiting synaptic dysfunction.

[4] = system: APP/PS1 transgenic mice; assay: Contextual fear conditioning (FC), associative memory; format: in vivo; conditions: Buntanetap 1 mg/Kg and/or dulaglutide 0.1 mg/Kg
Procedure: as §1
Mice were coded to blind investigators with respect to genotype and treatment. Results were expressed with Standard Error of the Mean (SEM). […] Results were analyzed by ANOVA analysis with post-hoc correction with the combination or genotype as main effect. […]
The combination effect on associative memory was assessed through fear conditioning (FC). […] Freezing behavior, defined as the absence of movements except for that needed for breathing, was scored using Noldus software. Contextual fear learning, a type of memory for which hippocampal function is indispensable, was evaluated 24 hrs after training by measuring freezing responses for 5 min in the same chamber where the mice have been trained. […]

[5] = system: APP, Tau, and aSYN in the cerebrospinal fluid (CSF) of MCI subjects; conditions: cited from earlier work
[6] = system: tau; conditions: Human tau mice; unpublished observation; cited from earlier work
[7] = system: rat acute glaucoma model; conditions: cited from earlier work
[8] = system: human SNCAA53T tg mouse model of PD; conditions: cited from earlier work
[9] = system: traumatic brain injury rats; conditions: cited from earlier work
[10] = system: fully differentiated Down syndrome nerve cells; conditions: cited from earlier work

Question: What does the source list for `CN1CC[C@]2(C)c3cc(OC(=O)Nc4ccccc4)ccc3N(C)C12` (stereo partly drawn) [Buntanetap, (3aR)-1,3a,8-trimethyl-1,2,3,3a,8,8a-hexahydropyrrolo[2,3-b]indol-5-yl phenylcarbamate]?
Answer: APP in relation to Actin standard (Western blot) [1]: lowers APP in vitro in a dose-dependent manner; Non-Responders (Number) ([2]; 7.5 mg): 5; Non-Responders (Percentage) ([2]; 7.5 mg): (26.32%); Responders (Number) ([2]; 7.5 mg): 14; Responders (Percentage) ([2]; 7.5 mg): (73.68%)**; Non-Responders (Number) ([2]; 15 mg): 7; Non-Responders (Percentage) ([2]; 15 mg): (28.00%); Responders (Number) ([2]; 15 mg): 18; Responders (Percentage) ([2]; 15 mg): (72.00%)**; Non-Responders (Number) ([2]; 30 mg): 3; Non-Responders (Percentage) ([2]; 30 mg): (12.50%); Responders (Number) ([2]; 30 mg): 21; Responders (Percentage) ([2]; 30 mg): (87.50%)***; difference in the proportion of participants who improved relative to placebo ([2]; 30 mg group): three-fold; improvement in ADAS-Cog 11 scores in each treatment dose relative to placebo ([2]; patients with mild AD, 7.5, 15, 30 mg, 12 weeks): significantly higher improvement; improvement in cognition ([2]; population with confirmed early AD (FIG. 2B)): dose-dependent improvement; % Improvement (Residual Potential) ([3]; APP/PS1, Buntanetap 1 mg/kg): 4.8%; Residual Potential (mean) ([3]; APP/PS1, Buntanetap 1 mg/kg i.p. daily): 141.55; Residual Potential (mean) ([3]; APP/PS1, Buntanetap 10 mg/kg i.p. daily): 213.56; % Improvement (Residual Potential) ([3]; APP/PS1, Buntanetap 10 mg/kg, 100% = wt veh minus APP/PS1 veh): 90.5%; impairment of synaptic plasticity measured through Long-term potentiation (LTP) ([3]; APP/PS1 mice, Buntanetap 1 mg/Kg and/or dulaglutide 0.1 mg/Kg): did not ameliorate; impairment of associative memory measured through contextual fear conditioning (FC) [4]: did not ameliorate; levels of APP, Tau, and aSYN in the cerebrospinal fluid (CSF) ([5]; MCI subjects, 4×60 mg/day): normalized; CSF A342 ([5]; MCI subjects): trend to lower; CSF levels of sAPPa, sAPPP, t-tau, p-tau, and specific inflammatory markers ([5]; MCI subjects): significantly lowered; inflammation ([5]; human CSF of MCI subjects): lowered; tau in vivo [6]: lowers; retina ([7]; acute glaucoma): Preserved; nerve cells ([7]; rat acute glaucoma model): protected; colonic motility [8]: Restored; inflammation ([9]; rat brain after TBI): lowered; impaired synaptic transmission ([9]; rat striatum after traumatic brain injury (TBI)): Normalized; nerve cells ([9]; rat substantia Ingra after TBI): protected; memory and learning ([9]; traumatic brain injury rats): Preserved; anterograde and retrograde vesicle transport [10]: Normalized
